Laboratory results as given in US11667602B2, “Compounds and their use” (AstraZeneca AB, priority 2020, dated 2023).

Biological target: T1, human RXFP1 (Homo sapiens, UniProt Q9HBX9)
T1 sequence (Q9HBX9 1-757): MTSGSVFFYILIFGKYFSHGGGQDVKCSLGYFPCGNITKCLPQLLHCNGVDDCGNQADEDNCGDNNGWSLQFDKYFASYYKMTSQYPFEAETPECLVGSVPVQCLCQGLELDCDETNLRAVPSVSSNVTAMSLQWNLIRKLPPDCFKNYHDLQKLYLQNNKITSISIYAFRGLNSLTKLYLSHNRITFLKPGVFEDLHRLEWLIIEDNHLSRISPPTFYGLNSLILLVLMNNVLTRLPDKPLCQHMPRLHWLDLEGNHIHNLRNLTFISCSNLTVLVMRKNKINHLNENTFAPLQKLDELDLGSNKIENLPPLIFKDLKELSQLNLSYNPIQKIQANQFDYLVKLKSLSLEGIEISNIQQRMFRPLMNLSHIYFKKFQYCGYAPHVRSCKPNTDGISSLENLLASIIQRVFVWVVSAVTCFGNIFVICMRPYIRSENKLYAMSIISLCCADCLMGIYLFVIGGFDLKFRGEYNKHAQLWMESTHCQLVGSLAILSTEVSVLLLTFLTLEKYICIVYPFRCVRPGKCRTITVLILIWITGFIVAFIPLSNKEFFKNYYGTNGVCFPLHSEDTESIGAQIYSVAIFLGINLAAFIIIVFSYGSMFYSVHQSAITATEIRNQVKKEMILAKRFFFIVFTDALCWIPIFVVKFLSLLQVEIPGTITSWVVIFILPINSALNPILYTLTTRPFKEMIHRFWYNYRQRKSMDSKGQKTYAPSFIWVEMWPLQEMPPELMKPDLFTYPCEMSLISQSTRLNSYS
Experiment: RXFP1 Hu cAMP (Test A)
Assay type: cell-based
Set-up: expressed in transfected cells; host or cells: Jump-In T-REx CHO-K1 cells (ThermoFisher), induced with 10 ng/ml doxycycline for 24 h
Settings: RXFP1 Hu cAMP; for EC50: read-out: Test A EC50
Method in brief: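 Read-out is HTRF signal, inversely proportional to cAMP, converted to cAMP amount by standard curve. Stimulation occurred in inducible CHO-K1 cells expressing the human receptor with phosphodiesterases blocked by 0.5 mM IBMX.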

Row | Compound | Test A Sinf [%] | EC50 [nM]
1 | COc1cc(F)c(O[C@H]2CC[C@](C)(C(=O)O)CC2)cc1C(=O)NC1[C@H]2CC[C@H](C2)[C@@H]1C(=O)Nc1cccc(S(=O)(=O)C(F)(F)F)c1 (some centres unmarked) [Example 445] | 101 | –
2 | COc1cc(C#N)c(O[C@H]2CC[C@@](C)(C(=O)O)CC2)cc1C(=O)N[C@@H]1[C@H]2CC[C@H](C2)[C@@H]1C(=O)NC1CCCCC1 [Example 121] | 98 | 130
3 | COc1cc(F)c(O[C@H]2CC[C@@](C)(C(=O)O)CC2)cc1C(=O)N[C@@H]1COC[C@@H]1C(=O)NCC(C)(C)C (racemic) [Example 345] | – | > 40000
4 | CC1(CNC(=O)[C@H]2[C@@H]3CC[C@@H](C3)[C@H]2NC(=O)c2cc(O[C@H]3CC[C@@](C)(C(=O)O)CC3)c(F)cc2C#N)CCC1 [Example 377] | 100 | –
5 | (1R,4s)-4-(2-fluoro-4-methoxy-5-(((3S*,4S*)-3-((3-((trifluoromethyl)sulfonyl)phenyl)carbamoyl)tetrahydro-2H-pyran-4-yl)carbamoyl)phenoxy)-1-methylcyclohexane-1-carboxylic acid [Example 519] | 101 | –
6 | COC[C@]1(C(=O)O)CC[C@@H](Oc2cc(C(=O)N[C@@H]3[C@H]4CC[C@H](C4)[C@@H]3C(=O)NCC(C)(C)C)c(OC)cc2F)CC1 [Example 481] | 96 | –
7 | COc1cc(F)c(-c2cccc(C(=O)O)c2)cc1C(=O)N[C@@H]1CCC[C@@H]1C(=O)Nc1cccc(S(=O)(=O)C(F)(F)F)c1 [Example 317, 2′-Fluoro-4′-methoxy-5′-(((1R,2S)-2-((3-((trifluoromethyl)sulfonyl)phenyl)carbamoyl)cyclopentyl)carbamoyl)-[1,1′-biphenyl]-3-carboxylic acid] | 75 | 1200
8 | COc1cc(C#N)c(Oc2ccc(C(=O)O)cc2)cc1C(=O)N[C@@H]1[C@H]2CC[C@H](C2)[C@@H]1C(=O)NCC1(C)CCC1 [Example 483] | 92 | 610
9 | COc1cc(F)c(OCc2ccc(C(=O)O)cc2)cc1C(=O)N[C@H]1[C@@H](C(=O)Nc2cccc(S(=O)(=O)C(F)(F)F)c2)[C@@H]2C=C[C@H]1C2 (racemic) [Example 450] | 107 | 610
10 | COc1cc(C#N)c(O[C@H]2CC[C@@](C)(C(=O)O)CC2)cc1C(=O)Nc1cc(Cl)ccc1C(=O)NCC(C)(C)F [Example 164] | 142 | 130
11 | COc1cc(F)c(O[C@H]2CC[C@@](C)(C(N)=O)CC2)cc1C(=O)N[C@@H]1[C@@H]2CC[C@@H](C2)[C@@H]1C(=O)NCC1(C)CCC1 [Example 421, (1S,2S,3R,4R)-3-(5-(((1s,4S)-4-Carbamoyl-4-methylcyclohexyl)oxy)-4-fluoro-2-methoxybenzamido)-N-((1-methylcyclobutyl)methyl)bicyclo[2.2.1]heptane-2-carboxamide] | 96 | 44
12 | COc1cc(F)c(O[C@H]2CC[C@@](F)(C(=O)O)CC2)cc1C(=O)N[C@@H]1[C@H]2CC[C@H](C2)[C@@H]1C(=O)NCC1(C)CCC1 [Example 415] | 103 | –
13 | COc1cc(F)c(O[C@H]2CC[C@@H](C(=O)O)CC2)cc1C(=O)N[C@H]1[C@H]2CC[C@H](C2)[C@H]1C(=O)Nc1cccc(S(F)(F)(F)(F)F)c1 [Example 510, (1R,4s)-4-(2-Fluoro-4-methoxy-5-(((1S,2S,3R,4R)-3-((3-(pentafluoro-6-sulfaneyl)phenyl)carbamoyl)bicyclo[2.2.1]heptan-2-yl)carbamoyl)phenoxy)cyclohexane-1-carboxylic acid] | 63 | 1600
14 | COc1cc(F)c(O[C@H]2CC[C@@H](S(N)(=O)=O)CC2)cc1C(=O)N[C@@H]1[C@@H]2CC[C@@H](C2)[C@@H]1C(=O)Nc1cccc(S(=O)(=O)C(F)(F)F)c1 [Example 463, (1S,2S,3R,4R)-3-(4-Fluoro-2-methoxy-5-(((1s,4S)-4-sulfamoylcyclohexyl)oxy)benzamido)-N-(3-((trifluoromethyl)sulfonyl)phenyl)bicyclo[2.2.1]heptane-2-carboxamide] | 111 | 340
15 | (1R,4s)-4-(2-Fluoro-4-methoxy-5-(((1S*,2R*)-2-(neopentylcarbamoyl)cyclobutyl)carbamoyl)phenoxy)-1-methylcyclohexane-1-carboxylic acid [Example 569] | 97 | –
16 | COc1cc(F)c(OCc2ccc(C(=O)O)cc2)cc1C(=O)N[C@@H]1[C@H]2CC[C@H](C2)[C@@H]1C(=O)Nc1cccc(S(=O)(=O)C(F)(F)F)c1 [Example 438] | 112 | 260
17 | COc1cc(F)c(OC2CCCC(C(=O)O)C2)cc1C(=O)N[C@@H]1[C@H]2CC[C@H](C2)[C@@H]1C(=O)Nc1cccc(S(=O)(=O)C(F)(F)F)c1 (single isomer, unassigned) [Example 447] | 94 | 830
18 | COc1cc(C#N)c(O[C@H]2CC[C@@](C)(C(=O)O)CC2)cc1C(=O)N[C@@H]1[C@H]2CC[C@H](C2)[C@@H]1C(=O)N[C@@H](C)C(C)C [Example 127] | 71 | 990
19 | COc1cc(C#N)c(O[C@H]2CC[C@@](C)(C(=O)O)CC2)cc1C(=O)N[C@H]1[C@@H](C(=O)NCC2(C)CCC2)[C@H]2CC[C@@H]1O2 (racemic) [Example 333] | 98 | –

The remaining lines, values ahead:

Row | Test A Sinf [%] | EC50 [nM] | Compound
20 | – | > 40000 | COc1cc(F)c(O[C@H]2CC[C@@](C)(C(=O)O)CC2)cc1C(=O)NC1C(O)CCC1C(=O)Nc1cccc(S(=O)(=O)C(F)(F)F)c1 (single isomer, unassigned) [Example 528, (1R,4s)-4-(2-Fluoro-5-(((1S*,2S*,5S*)-2-hydroxy-5-((3-((trifluoromethyl)sulfonyl)phenyl)carbamoyl)cyclopentyl)carbamoyl)-4-methoxyphenoxy)-1-methylcyclohexane-1-carboxylic acid]
21 | – | > 40000 | COc1cc(F)c(OC2CCC(C)(C(=O)O)CC2)cc1C(=O)NC1COCC1C(=O)Nc1ccc(F)c(S(F)(F)(F)(F)F)c1 [Example 564, (1R,4s)-4-(2-Fluoro-5-(((3S*,4R*)-4-((4-fluoro-3-(pentafluoro-λ6-sulfaneyl)phenyl)carbamoyl)tetrahydrofuran-3-yl)carbamoyl)-4-methoxyphenoxy)-1-methylcyclohexane-1-carboxylic acid]
22 | 105 | – | COc1cc(F)c(O[C@H]2CC[C@@](C)(C(=O)O)CC2)cc1C(=O)N[C@@H]1[C@H]2CC[C@H](C2)[C@@H]1C(=O)NCCC(F)(F)F [Example 596]
23 | 118 | – | COc1cc(F)c(OC2CCC(C)(C(=O)O)CC2)cc1C(=O)NC1COCC1C(=O)NCC1(C)CCC1 [Example 576, (1R,4s)-4-(2-Fluoro-4-methoxy-5-(((3S*,4R*)-4-(((1-methylcyclobutyl)methyl)carbamoyl)tetrahydrofuran-3-yl)carbamoyl)phenoxy)-1-methylcyclohexane-1-carboxylic acid]
24 | – | > 40000 | COc1cc(F)c(OC2CCC(C)(C(=O)O)CC2)cc1C(=O)NC1CC(OC)CC1C(=O)Nc1cccc(S(=O)(=O)C(F)(F)F)c1 (single isomer, unassigned) [Example 522, (1R,4s)-4-(2-Fluoro-4-methoxy-5-(((1S*,2R*,4S*)-4-methoxy-2-((3-((trifluoromethyl)sulfonyl)phenyl)carbamoyl)cyclopentyl)carbamoyl)phenoxy)-1-methylcyclohexane-1-carboxylic acid]
25 | – | > 40000 | COc1cc(F)c(O[C@H]2CC[C@@](C)(C(=O)O)CC2)cc1C(=O)NC1CCC1C(=O)NCC(C)(C)C (single isomer, unassigned) [Example 568, (1R,4s)-4-(2-Fluoro-4-methoxy-5-(((1S*,2R*)-2-(neopentylcarbamoyl)cyclobutyl)carbamoyl)phenoxy)-1-methylcyclohexane-1-carboxylic acid]
26 | 105 | – | COc1cc(F)c(O[C@H]2CC[C@@](C)(C(=O)O)CC2)cc1C(=O)N[C@@H]1[C@H]2CC[C@H](C2)[C@@H]1C(=O)NCC(C)(C)OC [Example 610]
27 | 101 | 2000 | COc1cc(F)c(O[C@H]2CC[C@@](C)(C(=O)O)CC2)cc1C(=O)N[C@@H]1[C@H]2CC[C@H](C2)[C@@H]1C(=O)N[C@@H](C)C(C)(C)C#N [Example 616]
28 | 96 | 170 | COc1cc(F)c(O[C@H]2CC[C@@](C)(C(=O)O)CC2)cc1C(=O)NC1C2CCC(O2)C1C(=O)NCC1(C)CCC1 (single isomer, unassigned) [Example 530, (1R,4s)-4-(2-Fluoro-4-methoxy-5-(((1S*,2S*,3R*,4R*)-3-(((1-methylcyclobutyl)methyl)carbamoyl)-7-oxabicyclo[2.2.1]heptan-2-yl)carbamoyl)phenoxy)-1-methylcyclohexane-1-carboxylic acid]
